Experimental data from US20060216749A1, “Chimeric gaba receptor” (priority 2003, published 2006).

Assays:
[1] = target: GABAB receptor expressed by the hGABABR1a/GABABR2 CHO cell line (Homo sapiens, UniProt O75899+Q9UBS5); conditions: 10 μM in saturation assay, FIGS. 4a, b
Procedure: Agonist centrifugation Binding AssayIn an alternative binding assay the non-bound ligand was separated from the membranes by centrifugation instead of filtration. The assay was performed according to the earlier described filter binding assay, with the difference that the non-bound ligand was separated from the membranes by centrifugation in a microcentrifuge at 12500 rpm for 10 minutes. The supernatant was discarded, the pellet was rinsed with washing buffer and dissolved in 200 μl water.

[2] = target: hGABABR1a/R2 heterodimeric GABAB receptor (CHO membranes) (Homo sapiens, UniProt O75899+Q9UBS5); test: biochemical
Procedure: (§1) Butyrate-stimulated (5 mM final) cells were scraped, after a short rinse with PBS, in 50 mM TrisHCl pH7.4 and centrifuged at 23500 g for 10 min. at 4° C. The pellet was homogenised in 5 mM TrisHCI pH 7.4 by Ultra-Turrax (24000 rpm) followed by centrifugation at 30000 g for 20 min. at 4° C. The resulting pellet was resuspended in 50 mM TrisHCl pH 7.4 and rehomogenised. Protein concentration was determined using the Bradford method.
An agonist filter binding assay has been developed in 96-well GF/B filterplate.

[3] = target: hGABABR1a/GABABR2 receptor (CHO membranes) (Homo sapiens, UniProt O75899+Q9UBS5); test: GTPγ35S activation assay
Chain of hGABABR1a/GABABR2 receptor (CHO membranes) (Q9UBS5 20-961): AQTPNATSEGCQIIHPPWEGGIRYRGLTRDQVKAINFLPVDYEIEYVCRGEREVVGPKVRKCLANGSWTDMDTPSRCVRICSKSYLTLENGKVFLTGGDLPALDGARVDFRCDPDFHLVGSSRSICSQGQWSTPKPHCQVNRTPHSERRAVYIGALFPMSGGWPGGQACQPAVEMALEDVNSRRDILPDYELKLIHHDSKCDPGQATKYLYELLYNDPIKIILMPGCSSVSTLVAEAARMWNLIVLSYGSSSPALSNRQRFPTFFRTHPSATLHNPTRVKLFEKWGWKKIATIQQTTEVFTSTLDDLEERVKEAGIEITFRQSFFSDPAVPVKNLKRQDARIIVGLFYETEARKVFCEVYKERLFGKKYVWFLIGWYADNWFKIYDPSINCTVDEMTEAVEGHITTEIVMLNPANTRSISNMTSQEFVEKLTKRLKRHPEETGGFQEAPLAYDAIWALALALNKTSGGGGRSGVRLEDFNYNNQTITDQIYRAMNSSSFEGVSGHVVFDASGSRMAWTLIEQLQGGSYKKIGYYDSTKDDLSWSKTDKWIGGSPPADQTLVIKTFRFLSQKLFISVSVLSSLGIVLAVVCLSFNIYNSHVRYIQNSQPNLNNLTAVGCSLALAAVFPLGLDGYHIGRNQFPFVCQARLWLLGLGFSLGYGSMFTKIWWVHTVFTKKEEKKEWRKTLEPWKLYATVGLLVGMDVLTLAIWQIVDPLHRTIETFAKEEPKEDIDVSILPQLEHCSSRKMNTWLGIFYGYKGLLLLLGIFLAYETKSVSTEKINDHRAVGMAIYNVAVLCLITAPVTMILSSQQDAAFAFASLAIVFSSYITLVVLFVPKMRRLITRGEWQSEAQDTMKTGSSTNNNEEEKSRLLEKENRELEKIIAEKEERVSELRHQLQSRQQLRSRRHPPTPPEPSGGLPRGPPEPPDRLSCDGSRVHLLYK
Chain of hGABABR1a/GABABR2 receptor (CHO membranes) (O75899 42-941): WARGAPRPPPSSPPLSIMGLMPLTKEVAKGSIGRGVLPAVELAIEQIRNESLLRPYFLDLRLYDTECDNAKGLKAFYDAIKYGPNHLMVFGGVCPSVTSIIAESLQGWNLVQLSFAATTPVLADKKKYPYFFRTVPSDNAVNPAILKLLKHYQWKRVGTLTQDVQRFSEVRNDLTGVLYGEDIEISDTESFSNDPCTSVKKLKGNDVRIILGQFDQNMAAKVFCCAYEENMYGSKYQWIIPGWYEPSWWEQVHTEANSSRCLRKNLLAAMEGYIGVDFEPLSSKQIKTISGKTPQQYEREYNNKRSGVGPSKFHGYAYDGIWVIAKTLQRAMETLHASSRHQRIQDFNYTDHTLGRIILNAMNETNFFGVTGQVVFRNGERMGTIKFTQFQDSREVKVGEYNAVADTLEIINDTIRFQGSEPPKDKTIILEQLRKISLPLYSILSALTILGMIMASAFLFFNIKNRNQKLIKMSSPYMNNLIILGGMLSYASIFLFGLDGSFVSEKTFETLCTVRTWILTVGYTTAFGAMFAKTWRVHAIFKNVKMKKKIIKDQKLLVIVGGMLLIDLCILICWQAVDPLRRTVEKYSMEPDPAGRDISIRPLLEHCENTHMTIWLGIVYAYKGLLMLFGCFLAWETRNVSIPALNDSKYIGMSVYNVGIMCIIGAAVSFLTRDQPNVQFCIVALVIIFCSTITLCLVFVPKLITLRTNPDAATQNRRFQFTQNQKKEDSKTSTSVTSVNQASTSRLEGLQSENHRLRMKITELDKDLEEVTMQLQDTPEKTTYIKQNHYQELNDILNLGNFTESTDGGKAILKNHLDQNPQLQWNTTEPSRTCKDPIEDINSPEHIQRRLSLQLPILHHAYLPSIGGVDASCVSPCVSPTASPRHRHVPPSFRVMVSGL
Procedure: as §1
Filters were rinsed 6 times with cold 10 mM phosphate buffer pH 7.4, and dried overnight before addition of 30 μl Microscint O, and measurement in Topcount (Packard, 1 min./well).

[4] = target: native GABAB receptor, Pig (Sus scrofa, UniProt A0A480I1B8); conditions: Facklam & Bowery, 1993; cited from earlier work
Chain of native GABAB receptor, Pig (A0A480I1B8 1-960): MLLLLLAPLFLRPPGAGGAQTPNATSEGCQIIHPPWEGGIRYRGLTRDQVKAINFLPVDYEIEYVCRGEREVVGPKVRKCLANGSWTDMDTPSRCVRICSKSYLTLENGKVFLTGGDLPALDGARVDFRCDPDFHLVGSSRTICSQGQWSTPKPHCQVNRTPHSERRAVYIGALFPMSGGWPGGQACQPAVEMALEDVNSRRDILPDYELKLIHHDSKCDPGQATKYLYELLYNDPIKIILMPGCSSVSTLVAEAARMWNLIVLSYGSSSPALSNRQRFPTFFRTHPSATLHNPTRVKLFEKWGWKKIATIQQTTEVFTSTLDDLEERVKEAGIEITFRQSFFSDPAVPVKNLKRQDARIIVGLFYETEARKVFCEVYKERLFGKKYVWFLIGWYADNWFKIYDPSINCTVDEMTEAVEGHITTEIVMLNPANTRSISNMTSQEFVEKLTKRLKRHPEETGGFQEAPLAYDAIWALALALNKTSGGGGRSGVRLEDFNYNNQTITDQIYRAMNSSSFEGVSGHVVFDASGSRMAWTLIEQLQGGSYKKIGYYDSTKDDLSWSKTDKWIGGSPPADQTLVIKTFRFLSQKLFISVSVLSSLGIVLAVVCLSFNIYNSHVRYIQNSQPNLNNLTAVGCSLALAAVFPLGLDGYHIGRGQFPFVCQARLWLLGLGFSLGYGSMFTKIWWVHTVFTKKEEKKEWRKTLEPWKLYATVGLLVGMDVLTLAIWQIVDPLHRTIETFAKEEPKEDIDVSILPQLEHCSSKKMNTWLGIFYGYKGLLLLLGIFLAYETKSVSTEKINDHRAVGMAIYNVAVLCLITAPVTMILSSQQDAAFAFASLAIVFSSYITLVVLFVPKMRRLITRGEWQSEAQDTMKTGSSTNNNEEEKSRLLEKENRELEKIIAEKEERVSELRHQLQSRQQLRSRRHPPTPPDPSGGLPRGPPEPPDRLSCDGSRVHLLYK

[5] = target: T1, native GABAB receptor, Rat (Rattus norvegicus, UniProt Q9Z0U4); conditions: published results; cited from earlier work
T1 construct: host or cells: rat tissue preparations
T1 sequence (Q9Z0U4 20-960): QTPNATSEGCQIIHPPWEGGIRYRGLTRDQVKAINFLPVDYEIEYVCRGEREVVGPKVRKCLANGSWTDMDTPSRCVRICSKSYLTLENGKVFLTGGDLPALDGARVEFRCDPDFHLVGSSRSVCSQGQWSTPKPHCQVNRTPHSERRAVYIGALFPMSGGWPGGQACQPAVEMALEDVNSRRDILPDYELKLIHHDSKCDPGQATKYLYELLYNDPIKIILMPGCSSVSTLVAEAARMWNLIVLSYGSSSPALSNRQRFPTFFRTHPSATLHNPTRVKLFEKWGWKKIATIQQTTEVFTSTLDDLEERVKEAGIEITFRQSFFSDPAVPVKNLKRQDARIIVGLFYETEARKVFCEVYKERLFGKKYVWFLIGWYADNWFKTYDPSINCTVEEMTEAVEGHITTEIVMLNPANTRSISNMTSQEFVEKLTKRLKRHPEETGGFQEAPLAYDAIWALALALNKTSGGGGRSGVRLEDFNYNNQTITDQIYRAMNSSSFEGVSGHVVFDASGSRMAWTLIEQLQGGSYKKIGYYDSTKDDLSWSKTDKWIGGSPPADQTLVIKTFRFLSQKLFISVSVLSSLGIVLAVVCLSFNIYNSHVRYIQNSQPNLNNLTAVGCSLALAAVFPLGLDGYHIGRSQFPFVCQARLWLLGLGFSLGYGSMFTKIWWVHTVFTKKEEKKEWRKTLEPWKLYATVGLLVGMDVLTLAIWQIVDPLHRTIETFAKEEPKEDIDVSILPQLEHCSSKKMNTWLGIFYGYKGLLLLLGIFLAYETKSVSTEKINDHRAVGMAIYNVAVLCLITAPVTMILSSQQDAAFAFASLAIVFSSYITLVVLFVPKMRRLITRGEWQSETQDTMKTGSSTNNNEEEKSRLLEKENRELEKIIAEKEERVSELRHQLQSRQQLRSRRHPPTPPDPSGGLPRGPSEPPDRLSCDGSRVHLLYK
T1 sequence (O88871 41-940 partner): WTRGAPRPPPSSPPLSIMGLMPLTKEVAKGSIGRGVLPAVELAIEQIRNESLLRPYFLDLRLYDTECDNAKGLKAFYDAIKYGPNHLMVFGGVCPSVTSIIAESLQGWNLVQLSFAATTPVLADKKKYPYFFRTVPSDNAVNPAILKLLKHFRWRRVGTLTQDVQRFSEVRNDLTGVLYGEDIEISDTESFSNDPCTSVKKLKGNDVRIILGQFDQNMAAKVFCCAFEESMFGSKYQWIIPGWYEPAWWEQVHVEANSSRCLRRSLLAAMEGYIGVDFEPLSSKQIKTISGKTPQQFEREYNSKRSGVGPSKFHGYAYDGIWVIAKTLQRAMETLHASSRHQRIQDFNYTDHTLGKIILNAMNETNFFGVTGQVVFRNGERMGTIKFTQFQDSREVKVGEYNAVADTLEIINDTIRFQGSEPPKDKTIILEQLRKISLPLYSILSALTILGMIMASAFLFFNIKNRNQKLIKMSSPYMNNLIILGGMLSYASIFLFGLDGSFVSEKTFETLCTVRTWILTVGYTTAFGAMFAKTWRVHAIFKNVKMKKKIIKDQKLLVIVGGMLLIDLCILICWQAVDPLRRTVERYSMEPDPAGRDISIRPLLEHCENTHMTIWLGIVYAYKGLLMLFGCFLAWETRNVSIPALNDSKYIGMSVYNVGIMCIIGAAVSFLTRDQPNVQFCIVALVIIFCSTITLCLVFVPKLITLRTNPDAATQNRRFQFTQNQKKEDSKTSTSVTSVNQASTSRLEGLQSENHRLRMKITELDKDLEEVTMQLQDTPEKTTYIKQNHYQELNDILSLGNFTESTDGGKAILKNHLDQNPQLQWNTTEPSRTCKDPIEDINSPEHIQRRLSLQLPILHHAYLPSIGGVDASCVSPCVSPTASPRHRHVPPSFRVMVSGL

Chain of hGABABR1a/R2 heterodimeric GABAB receptor (CHO membranes) (Q9UBS5 20-961): as the sequence (Q9UBS5 20-961) above
Chain of hGABABR1a/R2 heterodimeric GABAB receptor (CHO membranes) (O75899 42-941): as the sequence (O75899 42-941) above
Chain of GABAB receptor expressed by the hGABABR1a/GABABR2 CHO cell line (Q9UBS5 20-961): as the sequence (Q9UBS5 20-961) above
Chain of GABAB receptor expressed by the hGABABR1a/GABABR2 CHO cell line (O75899 42-941): as the sequence (O75899 42-941) above

| SMILES | IC50 [2] | SIGNAL TRANSDUCTION GTPγS binding % Effect at 10 μM [3] | also measured |
| --- | --- | --- | --- |
| C[C@H](NC[C@H](O)CP(=O)(O)CC1CCCCC1)c1ccc(Cl)c(Cl)c1 [CGP54626, reference compound] |  |  | effect on 3H-GABA binding to both the high and the low affinity site [1]: blocked |
| CC1(C)CC2=Nc3c(N)ncnc3SC2=C(NCCCC(=O)O)C1 | 151 nM | 40.95% |  |
| C[C@H](NC[C@H](O)CP(=O)(O)CC1CCCCC1)c1ccc(Cl)c(Cl)c1 [^3H-CGP54626] |  |  | Kd [4]: 1.35 nM; Kd [5]: 1.5 nM |
| CC1(C)CC2=Nc3c(Cl)ncnc3SC2=C(NCCCC(=O)O)C1 | 135 nM | 61.93% |  |
| CN(C)c1ncnc2c1N=C1CC(C)(C)CC(NCCCC(=O)O)=C1S2 [compound 1] |  |  | effect on 3H-GABA binding to both the high and the low affinity site [1]: blocked |
| CC1(C)CC2=Nc3ccccc3SC2=C(NCCCC(=O)O)C1 | 372 nM | 24.44% |  |
| CN(C)c1ncnc2c1N=C1CC(C)(C)CC(NCCCC(=O)O)=C1S2 [drawing 15] | 64.9 nM | 45.7275% |  |
| NCCCC(=O)O [^3H-GABA] |  |  | Kd [4]: 26 nM |
| CC(C)(CO)Cc1cc(C(C)(C)C)c(O)c(C(C)(C)C)c1 [CGP7930, reference compound] |  |  | effect on GABA-stimulated GTPγ35S binding ([3]; positive modulator, FIG. 1): potentiated |
